Results as given in patent publication US20040162350A1, “Method of treating a non-cancerous disease of the male prostate” (priority 2003, published 2004).

What was measured:
male volunteers = experiment: Number of night awakenings with the need to urinate, recorded by male volunteers over six-week trial periods; type: in vivo, human; details: volunteers who woke three or more times a night in more than 28 nights of six-week baseline; multiple daily doses of 15-20 grams; result in at least two thirds of the nights of a subsequent six week trial period; seen in some volunteers
Source text: A group of male volunteers recorded for six weeks the number of times a night that they were awakened with the need to urinate. Those who woke up three or more times a night in more than 28 nights durng the six week trial were then given multiple daily doses of 15-20 grams of 2-amino-4-carbamoylbutanoic acid and continued to record the number of times a night that they were awakened with the need to urinate.

prostate enlargement = experiment: Treatment of a person with prostate enlargement diagnosed as a non-cancerous condition; type: in vivo, human; details: 10 grams with each meal, total 40 grams daily
Source text: A person with prostate enlargement diagnosed as a non-cancerous condition started a regimen of taking 10 grams of 2-amino-4-carbamoylbutanoic acid with each meal for a total of 40 grams daily.

NC(=O)CCC(N)C(=O)O (stereo not drawn) [2-amino-4-carbamoylbutanoic acid]
number of times a night awakened with the need to urinate (male volunteers): diminished from three or more times a night to twice, once, and even none at all
relief felt (prostate enlargement; after a few weeks): felt relief
prostate size (prostate enlargement; after two months of this regimen): shrunk to normal size
